Results: US9408835B2, “Pharmaceutical composition for oral administration” (ASTELLAS PHARMA INC., priority 2013, dated 2016)
Converted amounts (≈) assume the structure as drawn. Read-outs that look alike come from different tables or passages of the source.

Columns and labels:
[1] = Solubility of compound A in dissolution test fluids and water; format: physicochemical
Janus kinase 3 = target: T1, Janus kinase 3 (Homo sapiens, UniProt P52333); conditions: reported in Patent literature 1; cited from earlier work
T1 sequence (P52333 1-1124): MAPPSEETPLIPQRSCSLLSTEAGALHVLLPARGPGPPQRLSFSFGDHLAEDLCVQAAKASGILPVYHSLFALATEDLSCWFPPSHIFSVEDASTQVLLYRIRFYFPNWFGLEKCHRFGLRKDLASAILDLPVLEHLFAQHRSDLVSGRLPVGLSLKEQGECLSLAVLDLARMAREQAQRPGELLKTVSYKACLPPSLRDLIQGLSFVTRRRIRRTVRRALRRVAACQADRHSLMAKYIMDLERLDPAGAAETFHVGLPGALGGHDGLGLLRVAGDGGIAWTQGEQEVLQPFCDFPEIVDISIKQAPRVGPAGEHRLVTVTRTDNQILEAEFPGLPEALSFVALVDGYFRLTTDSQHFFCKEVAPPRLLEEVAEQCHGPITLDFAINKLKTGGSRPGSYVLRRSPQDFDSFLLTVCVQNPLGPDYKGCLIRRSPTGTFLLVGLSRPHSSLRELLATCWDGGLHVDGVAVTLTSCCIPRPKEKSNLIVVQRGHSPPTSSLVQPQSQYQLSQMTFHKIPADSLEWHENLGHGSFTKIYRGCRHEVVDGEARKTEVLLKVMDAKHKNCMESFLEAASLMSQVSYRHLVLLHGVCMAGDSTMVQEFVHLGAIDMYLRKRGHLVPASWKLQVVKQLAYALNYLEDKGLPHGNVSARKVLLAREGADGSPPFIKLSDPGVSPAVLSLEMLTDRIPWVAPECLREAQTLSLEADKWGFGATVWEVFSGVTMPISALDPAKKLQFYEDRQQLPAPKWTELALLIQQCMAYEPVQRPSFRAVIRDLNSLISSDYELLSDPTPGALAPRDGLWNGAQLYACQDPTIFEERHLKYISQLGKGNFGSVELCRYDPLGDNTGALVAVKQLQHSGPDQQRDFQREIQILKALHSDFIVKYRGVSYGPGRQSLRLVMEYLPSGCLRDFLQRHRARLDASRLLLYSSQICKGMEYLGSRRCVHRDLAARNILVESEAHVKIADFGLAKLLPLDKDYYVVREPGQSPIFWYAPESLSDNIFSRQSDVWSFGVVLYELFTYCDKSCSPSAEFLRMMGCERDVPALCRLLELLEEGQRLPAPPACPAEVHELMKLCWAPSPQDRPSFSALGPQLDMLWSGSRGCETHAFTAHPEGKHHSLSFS

difference in solubility between acidic and neutral pH range ([1]; JP1 pH 1.2 vs pH 6.8): about 1,000 times | solubility ([1]; Japanese Pharmacopoeia, aqueous buffer, 2nd fluid for dissolution test JP2 (pH 6.8), read-out: solubility at a neutral pH range): ~8 µg/mL (≈ 0.0245 mM) | solubility ([1]; Japanese Pharmacopoeia, simulated gastric fluid, 1st fluid for dissolution test JP1 (pH 1.2), read-out: solubility at an acidic pH range): ~8600 µg/mL (≈ 26.3 mM) | solubility ([1]; aqueous buffer, pH 6.8 phosphate buffer, USP, read-out: solubility at a neutral pH range): ~11 µg/mL (≈ 0.0337 mM) | solubility ([1]; water, read-out: solubility in water): ~12500 µg/mL (≈ 38.3 mM)
SMILES: NC(=O)c1cnc2[nH]ccc2c1N[C@@H]1[C@@H]2CC3C[C@H]1C[C@@](O)(C3)C2 [compound A, 4-{[(1R,2s,3S,5s,7s)-5-hydroxy-2-adamantyl]amino}-1H-pyrrolo[2,3-b]pyridine-5-carboxamide]
JAK3 inhibitory activity (Janus kinase 3): superior
